Where two headings read alike, the source gives them in different places.
Experiments:
[1] = target: T1, human OX1R (Homo sapiens, UniProt O43613); assay: Agonist activity against OX1R: intracellular calcium (Fura-2AM, FDSS7000) in CHOOX1R cells; format: cell-based; settings: for Emax at 0.1 µM / Emax at 1 µM / Emax at 10 µM: read-out: Response (%) OX1R
T1 construct: expressed in transfected cells; host or cells: CHO (Chinese hamster ovary) cells, line CHOOX1R, co-expressing NFAT-luciferase
T1 sequence (O43613 1-425): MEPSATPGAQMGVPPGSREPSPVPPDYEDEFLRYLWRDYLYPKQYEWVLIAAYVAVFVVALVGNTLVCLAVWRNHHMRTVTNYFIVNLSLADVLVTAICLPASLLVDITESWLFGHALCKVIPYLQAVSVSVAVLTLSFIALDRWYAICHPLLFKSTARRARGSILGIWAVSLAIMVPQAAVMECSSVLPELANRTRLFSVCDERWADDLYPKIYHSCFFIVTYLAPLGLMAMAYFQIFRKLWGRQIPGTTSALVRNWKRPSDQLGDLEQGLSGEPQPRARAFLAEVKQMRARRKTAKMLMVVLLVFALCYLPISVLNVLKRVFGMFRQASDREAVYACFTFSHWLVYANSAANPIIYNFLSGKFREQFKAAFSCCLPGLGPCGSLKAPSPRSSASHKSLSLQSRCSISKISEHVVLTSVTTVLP
Procedure: (§1) Evaluation of Agonist Activity Against OX1R and OX2R
(§2) NAFT-luciferase gene and human OX1R gene were constitutively expressed in CHO cell, which is a cell line derived from Chinese hamster ovary to establish a cell line (CHOOX1R) and NAFT-luciferase gene and human OX2R gene were constitutively expressed in CHO cell to establish a cell line (CHOOX2R). The respective cells were seeded in a 96-well Multiplate at 10,000 cells/well and cultured in a 5% FBS (Thermo Scientific)-added DMEM medium (Sigma-Aldrich) for 48 hr. The medium was removed, an assay buffer (20 mM HEPES (Sigma-Aldrich), Hanks' balanced salt solution (Gibco), 0.1% BSA (Sigma-Aldrich), 2.5 mM probenecid acid (Wako Pure Chemical Industries, Ltd.)) (100 μL) containing 5 μM Fura-2AM (Cayman Chemical) was added, and the cells were incubated for 60 min. The buffer containing Fura-2AM was removed, and an assay buffer (75 μL) was added. An assay buffer (25 μL) containing a test compound was added thereto to start the reaction. Changes in the intracellular calcium ion concentration due to the reaction were measured by measuring the fluorescence intensity ratio by dual wavelength excitation at 340 and 380 nm, by using FDSS7000 (Hamamatsu Photonics K.K.). The test compound was dissolved in DMSO to 10 mM, and diluted with the assay buffer to a final concentration of 10^−7M to 10^−5M (final concentration of DMSO 1%).
(§3) (As used herein, Response in Table 21 to Table 27 is a value obtained by dividing the agonist activity value, when the test compound is evaluated with orexin-A as a full-agonist (maximum value of agonist activity: 100%), at 10 μM, 1.0 μM, 0.1 μM by the agonist activity value of orexin-A.)

[2] = target: T2, human OX2R (Homo sapiens, UniProt O43614); assay: Agonist activity against OX2R: intracellular calcium (Fura-2AM, FDSS7000) in CHOOX2R cells; format: cell-based; settings: relative to orexin-A as full agonist (100%)
T2 construct: expressed in transfected cells; host or cells: CHO (Chinese hamster ovary) cells, line CHOOX2R, co-expressing NFAT-luciferase
T2 sequence (O43614 1-444): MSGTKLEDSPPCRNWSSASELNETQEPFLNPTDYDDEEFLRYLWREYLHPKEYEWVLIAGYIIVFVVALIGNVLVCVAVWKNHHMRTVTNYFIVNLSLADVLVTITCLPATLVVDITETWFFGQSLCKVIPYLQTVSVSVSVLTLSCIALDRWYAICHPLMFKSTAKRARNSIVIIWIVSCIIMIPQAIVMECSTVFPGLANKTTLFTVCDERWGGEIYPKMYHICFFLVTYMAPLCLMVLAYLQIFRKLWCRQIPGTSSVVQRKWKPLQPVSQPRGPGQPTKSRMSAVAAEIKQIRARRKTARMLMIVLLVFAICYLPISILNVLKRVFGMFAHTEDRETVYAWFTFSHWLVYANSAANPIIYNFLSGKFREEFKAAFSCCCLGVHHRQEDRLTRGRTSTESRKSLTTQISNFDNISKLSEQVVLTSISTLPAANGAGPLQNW
Procedure: as §1, §2, §3

[3] = test compound 0.1 μM, relative to orexin-A as full agonist (100%)
[4] = test compound 1.0 μM, relative to orexin-A as full agonist (100%)
[5] = test compound 10 μM, relative to orexin-A as full agonist (100%)
[6] = 0.1 μM test compound, relative to orexin-A as full agonist (100%)
[7] = 1.0 μM test compound, relative to orexin-A as full agonist (100%)
[8] = 10 μM test compound, relative to orexin-A as full agonist (100%)

SMILES	Response (%) OX1R [1, 3] [%]	Response (%) OX1R [1, 4] [%]	Response (%) OX1R [1, 5] [%]	Response (%) OX2R ([2]; test compound 0.1 μM) [%]	Response (%) OX2R ([2]; test compound 1.0 μM) [%]	Response (%) OX2R ([2]; test compound 10 μM) [%]	Response (%) OX1R [1, 6] [%]	Response (%) OX1R [1, 7] [%]	Response (%) OX1R [1, 8] [%]	Response (%) OX2R ([2]; 0.1 μM test compound) [%]	Response (%) OX2R ([2]; 1.0 μM test compound) [%]	Response (%) OX2R ([2]; 10 μM test compound) [%]	further results
CN(C)C(=O)c1cccc(-c2ccc(Cl)c(S(=O)(=O)Nc3cccc(NC(=O)Nc4cccc(N(C)C)c4)c3)c2)c1 [Example 118]	9	8	9	11	36	71	–	–	–	–	–	–	–
CNc1cccc(NS(=O)(=O)c2cc(-c3cccc(C(=O)N(C)C)c3)ccc2OC)c1 [Example 95, 4′-methoxy-N,N-dimethyl-3′-(N-(3-(methylamino)phenyl)sulfamoyl)-[1,1′-biphenyl]-3-carboxamide]	–	–	–	<5	11	68	–	–	–	–	–	–	Emax at 0.1 µM [1, 3]: < 5%; Emax at 1 µM [1, 4]: < 5%; Emax at 10 µM [1, 5]: < 5%
COc1ccc(-c2cccc(C(=O)N(C)C)c2)cc1S(=O)(=O)Nc1cccc(N)c1 [Example 99]	8	8	9	19	14	76	–	–	–	–	–	–	–
COc1ccc(NC(=O)Nc2cccc(NS(=O)(=O)c3cc(-c4cccc(C(=O)N(C)C)c4)ccc3OC)c2)cc1 [Example 53]	–	–	–	–	–	–	<8	6	26	98	95	100	–
COc1ccc(-c2cccc(C(=O)N(C)C)c2)cc1S(=O)(=O)Nc1cccc(NC(=O)N(C)c2cccc(N(C)C)c2)c1 [Example 127, 3′-(N-(3-(3-(3-(dimethylamino)phenyl)-3-methylureido)phenyl)sulfamoyl)-4′-methoxy-N,N-dimethyl-[1,1′-biphenyl]-3-carboxamide]	–	–	–	106	90	73	–	–	–	–	–	–	Emax at 0.1 µM [1]: < 5%; Emax at 1 µM [1]: 7%; Emax at 10 µM [1]: 56%
COc1ccc(-c2cccc(C(=O)N(C)C)c2)cc1S(=O)(=O)Nc1cccc(NCc2ccccc2O)c1 [Example 26]	–	–	–	–	–	–	<5	<5	9	<5	51	101	–
COc1ccc(-c2cccc(C(=O)N(C)C)c2)cc1S(=O)(=O)Nc1cccc(NC(=O)Nc2cc([N+](=O)[O-])cc([N+](=O)[O-])c2)c1 [Example 47]	–	–	–	–	–	–	<5	<5	<5	7	81	102	–
COc1ccc(-c2cccc(C(=O)N(C)C)c2)cc1S(=O)(=O)Nc1cccc(NC(=O)Nc2ccc(N(C)C)nc2)c1 [Example 71]	–	–	–	–	–	–	6	<5	10	106	97	113	–
COc1ccc(C(=O)NCCCNC(=O)OC(C)(C)C)cc1S(=O)(=O)Nc1cccc(NC(=O)Nc2cccc(N(C)C)c2)c1 [Example 104]	7	6	7	7	79	99	–	–	–	–	–	–	–
COc1ccc(C(=O)NCCCNC(=O)OC(C)(C)C)cc1S(=O)(=O)Nc1cccc(NC(=O)Nc2ccccc2N(C)C)c1 [Example 112, tert-butyl (3-(3-(N-(3-(3-(2-(dimethylamino)phenyl)ureido)phenyl)sulfamoyl)-4-methoxybenzamido)propyl)carbamate]	–	–	–	<5	26	69	–	–	–	–	–	–	Emax at 0.1 µM [1, 3]: < 5%; Emax at 1 µM [1, 4]: < 5%; Emax at 10 µM [1, 5]: < 5%
COc1ccc(-c2cccc(C(=O)N(C)C)c2)cc1S(=O)(=O)Nc1cccc(N2CCCN(c3ccccc3N(C)C)C2=O)c1 [Example 133]	25	86	84	107	81	72	–	–	–	–	–	–	–
COc1ccc(-c2cccc(C(=O)N(C)C)c2)cc1S(=O)(=O)Nc1cccc(NC(=O)Nc2cccc(C(=O)O)c2)c1 [Example 48]	–	–	–	–	–	–	<5	<5	<5	<5	<5	14	–
COc1ccc(-c2cccc(C(=O)N(C)C)c2)cc1S(=O)(=O)Nc1cccc(NC(=O)Nc2ccc(N)cc2)c1 [Example 55]	–	–	–	–	–	–	<5	<5	<5	<5	54	105	–
COc1ccc(-c2cccc(C(=O)N(C)C)c2)cc1S(=O)(=O)Nc1cccc(NCc2ccc(C)cc2)c1 [Example 27]	–	–	–	–	–	–	<5	24	70	90	126	92	–
COc1ccc(-c2cccc(C(=O)N(C)C)c2)cc1S(=O)(=O)Nc1cccc(NC(=O)Nc2cccc(NC(=N)N)c2)c1 [Example 65]	–	–	–	–	–	–	<5	<5	<5	<5	<5	6	–
COc1ccc(-c2cccc(C(=O)N(C)C)c2)cc1S(=O)(=O)Nc1cccc(N2CCN(c3ccc(N(C)C)cc3)C2=O)c1 [Example 131]	<5	<5	18	43	96	101	–	–	–	–	–	–	–
